In patent US20090099029A1, “Methods and substrates for conducting assays” (Invitrogen Corporation, priority 2005, published 2009):
Where two headings read alike, the source gives them in different places.

Columns and labels:
Assay in all cases: Further analysis of a plurality of inhibitors and a plurality of kinases (Table 5 inhibition results)
Format in all cases: biochemical
Design in all cases: scale not given here
kinases of Table 5 [1] = target: T1, kinases of Table 5 (Homo sapiens, UniProt P41743); details: kinase PRKCI (Part I, plate A2, Domain 0)
T1 sequence (P41743 1-596): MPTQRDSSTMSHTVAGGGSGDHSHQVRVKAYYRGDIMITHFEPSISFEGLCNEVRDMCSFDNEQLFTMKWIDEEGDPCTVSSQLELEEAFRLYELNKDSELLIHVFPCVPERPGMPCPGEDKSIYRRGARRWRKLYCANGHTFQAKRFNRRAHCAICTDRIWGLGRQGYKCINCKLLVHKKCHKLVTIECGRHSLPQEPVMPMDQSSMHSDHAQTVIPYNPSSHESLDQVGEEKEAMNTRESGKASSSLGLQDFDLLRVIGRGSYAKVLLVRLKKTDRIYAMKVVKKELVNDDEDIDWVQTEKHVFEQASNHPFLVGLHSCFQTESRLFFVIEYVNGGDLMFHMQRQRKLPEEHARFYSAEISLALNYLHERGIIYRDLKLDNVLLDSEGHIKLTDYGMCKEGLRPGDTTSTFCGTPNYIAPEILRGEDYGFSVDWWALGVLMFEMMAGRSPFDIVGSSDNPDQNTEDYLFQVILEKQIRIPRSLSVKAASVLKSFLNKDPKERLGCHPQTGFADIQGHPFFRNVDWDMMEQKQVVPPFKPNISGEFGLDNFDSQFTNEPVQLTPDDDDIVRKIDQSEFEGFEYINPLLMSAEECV
Description: (§1) The wash solution is then discarded.

kinases of Table 5 [2] = target: kinases of Table 5 (Homo sapiens, UniProt P24723); details: for Inhibition level: kinase PRKCH; for Inhibition Results (Level): kinase PRKCH (Part II, plate B3, Domain 0)
Chain of kinases of Table 5 (Homo sapiens, UniProt P24723) (P24723 whole entry): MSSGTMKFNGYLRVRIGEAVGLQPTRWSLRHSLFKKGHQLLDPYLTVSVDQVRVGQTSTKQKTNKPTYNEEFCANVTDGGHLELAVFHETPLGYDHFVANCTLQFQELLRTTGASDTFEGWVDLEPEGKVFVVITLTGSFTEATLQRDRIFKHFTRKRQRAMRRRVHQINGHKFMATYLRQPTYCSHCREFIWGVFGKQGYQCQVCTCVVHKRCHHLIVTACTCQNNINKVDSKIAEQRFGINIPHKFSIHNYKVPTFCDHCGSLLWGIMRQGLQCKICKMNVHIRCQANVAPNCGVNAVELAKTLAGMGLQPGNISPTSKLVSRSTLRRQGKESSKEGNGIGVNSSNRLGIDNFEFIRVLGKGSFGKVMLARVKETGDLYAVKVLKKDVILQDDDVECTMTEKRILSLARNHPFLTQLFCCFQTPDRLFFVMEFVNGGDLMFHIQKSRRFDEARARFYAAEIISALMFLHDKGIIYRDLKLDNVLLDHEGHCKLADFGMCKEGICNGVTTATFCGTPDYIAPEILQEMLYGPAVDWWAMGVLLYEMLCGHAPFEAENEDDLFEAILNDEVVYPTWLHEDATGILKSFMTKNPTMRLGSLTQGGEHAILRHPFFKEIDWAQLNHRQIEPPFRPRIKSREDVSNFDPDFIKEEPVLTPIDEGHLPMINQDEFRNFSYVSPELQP
Description: as §1

kinases of Table 5 [3] = target: kinases of Table 5 (Homo sapiens, UniProt P07949); details: for Inhibition level: kinase RET; for Inhibition Results (Level): kinase RET (Part II, plate B7, Domain 1)
Chain of kinases of Table 5 (Homo sapiens, UniProt P07949) (P07949 29-1114): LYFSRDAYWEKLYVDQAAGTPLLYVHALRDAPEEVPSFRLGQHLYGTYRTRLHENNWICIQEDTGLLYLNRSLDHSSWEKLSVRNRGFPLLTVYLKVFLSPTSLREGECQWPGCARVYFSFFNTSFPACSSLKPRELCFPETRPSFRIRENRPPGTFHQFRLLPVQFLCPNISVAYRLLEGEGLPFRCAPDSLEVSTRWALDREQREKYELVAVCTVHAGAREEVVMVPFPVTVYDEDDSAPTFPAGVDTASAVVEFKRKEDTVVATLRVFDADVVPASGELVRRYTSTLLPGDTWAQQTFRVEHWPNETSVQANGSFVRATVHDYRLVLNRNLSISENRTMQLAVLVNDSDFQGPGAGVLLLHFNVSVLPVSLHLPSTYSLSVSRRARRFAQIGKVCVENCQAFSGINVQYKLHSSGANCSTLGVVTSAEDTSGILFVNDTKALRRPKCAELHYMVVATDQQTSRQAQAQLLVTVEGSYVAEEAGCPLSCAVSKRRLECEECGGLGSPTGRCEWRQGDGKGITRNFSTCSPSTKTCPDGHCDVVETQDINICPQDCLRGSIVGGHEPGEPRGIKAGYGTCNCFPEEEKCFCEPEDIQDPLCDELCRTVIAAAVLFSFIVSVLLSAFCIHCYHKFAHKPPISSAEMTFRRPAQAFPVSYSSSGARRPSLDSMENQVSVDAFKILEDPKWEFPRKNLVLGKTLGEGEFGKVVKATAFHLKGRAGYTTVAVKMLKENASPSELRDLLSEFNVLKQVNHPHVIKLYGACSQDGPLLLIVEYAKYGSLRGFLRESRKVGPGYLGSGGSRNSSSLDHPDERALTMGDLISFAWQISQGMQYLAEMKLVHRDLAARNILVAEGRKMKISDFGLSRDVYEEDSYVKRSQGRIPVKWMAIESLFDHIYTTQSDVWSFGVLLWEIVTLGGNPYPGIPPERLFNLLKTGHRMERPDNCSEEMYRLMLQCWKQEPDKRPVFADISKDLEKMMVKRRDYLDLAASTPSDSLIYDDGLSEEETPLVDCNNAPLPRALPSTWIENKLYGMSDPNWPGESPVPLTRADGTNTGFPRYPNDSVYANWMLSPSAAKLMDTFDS
Description: as §1

kinases of Table 5 [4] = target: T2, kinases of Table 5 (Homo sapiens, UniProt P54762); details: for Inhibition Results (Level): kinase EPHB1 (Part II, plate B8, Domain 1)
T2 sequence (P54762 18-984): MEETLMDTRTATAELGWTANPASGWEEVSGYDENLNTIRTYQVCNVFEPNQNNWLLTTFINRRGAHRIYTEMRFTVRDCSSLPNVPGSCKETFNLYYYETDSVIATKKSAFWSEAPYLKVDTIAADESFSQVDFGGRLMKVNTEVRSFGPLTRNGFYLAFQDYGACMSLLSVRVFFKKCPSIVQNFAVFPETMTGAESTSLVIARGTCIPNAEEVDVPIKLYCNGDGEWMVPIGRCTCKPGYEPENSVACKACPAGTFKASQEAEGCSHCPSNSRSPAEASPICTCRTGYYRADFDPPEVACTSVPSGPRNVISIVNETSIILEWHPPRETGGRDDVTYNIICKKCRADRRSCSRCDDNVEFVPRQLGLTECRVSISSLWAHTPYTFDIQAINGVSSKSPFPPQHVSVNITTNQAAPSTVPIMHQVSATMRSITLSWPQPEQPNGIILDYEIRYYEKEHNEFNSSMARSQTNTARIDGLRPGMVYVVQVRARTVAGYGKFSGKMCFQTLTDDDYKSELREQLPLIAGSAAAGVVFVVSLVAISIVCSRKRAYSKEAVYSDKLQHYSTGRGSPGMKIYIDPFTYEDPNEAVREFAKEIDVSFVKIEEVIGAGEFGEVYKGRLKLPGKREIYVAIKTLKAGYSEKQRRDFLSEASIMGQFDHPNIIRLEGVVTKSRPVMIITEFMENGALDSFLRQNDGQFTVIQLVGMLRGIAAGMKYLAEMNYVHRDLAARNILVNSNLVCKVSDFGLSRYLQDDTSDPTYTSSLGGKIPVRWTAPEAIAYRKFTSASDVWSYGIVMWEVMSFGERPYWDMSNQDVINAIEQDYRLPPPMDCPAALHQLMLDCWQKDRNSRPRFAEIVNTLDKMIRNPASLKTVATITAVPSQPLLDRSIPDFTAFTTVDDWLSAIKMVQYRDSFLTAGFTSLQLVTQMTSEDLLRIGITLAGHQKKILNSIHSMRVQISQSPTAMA
Description: as §1

kinases of Table 5 [5] = target: kinases of Table 5 (Homo sapiens, UniProt P21802); details: for Inhibition level: kinase FGFR2
Chain of kinases of Table 5 (Homo sapiens, UniProt P21802) (P21802 22-821): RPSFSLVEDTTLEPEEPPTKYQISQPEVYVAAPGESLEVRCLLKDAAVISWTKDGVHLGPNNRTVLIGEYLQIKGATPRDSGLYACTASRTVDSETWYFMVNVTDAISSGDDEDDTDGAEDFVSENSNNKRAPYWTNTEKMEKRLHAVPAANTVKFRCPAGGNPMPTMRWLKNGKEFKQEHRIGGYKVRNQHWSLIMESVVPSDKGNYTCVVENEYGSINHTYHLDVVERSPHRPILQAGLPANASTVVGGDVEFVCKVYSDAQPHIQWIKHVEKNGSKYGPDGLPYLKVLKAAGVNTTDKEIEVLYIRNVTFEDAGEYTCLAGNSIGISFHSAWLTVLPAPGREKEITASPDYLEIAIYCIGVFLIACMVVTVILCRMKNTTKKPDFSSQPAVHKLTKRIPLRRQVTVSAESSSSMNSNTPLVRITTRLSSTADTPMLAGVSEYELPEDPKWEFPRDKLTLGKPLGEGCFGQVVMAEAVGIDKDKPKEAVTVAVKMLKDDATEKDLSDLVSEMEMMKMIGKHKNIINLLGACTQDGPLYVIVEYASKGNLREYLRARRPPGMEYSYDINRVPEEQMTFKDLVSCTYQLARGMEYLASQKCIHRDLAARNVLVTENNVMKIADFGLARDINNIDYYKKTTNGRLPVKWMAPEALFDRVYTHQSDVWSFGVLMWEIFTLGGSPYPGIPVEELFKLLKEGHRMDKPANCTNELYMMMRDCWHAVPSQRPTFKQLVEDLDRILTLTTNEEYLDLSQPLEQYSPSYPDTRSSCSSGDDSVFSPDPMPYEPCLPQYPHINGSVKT
Description: as §1

kinases of Table 5 [6] = target: kinases of Table 5 (Homo sapiens, UniProt P11309)
Chain of kinases of Table 5 (Homo sapiens, UniProt P11309) (P11309 whole entry): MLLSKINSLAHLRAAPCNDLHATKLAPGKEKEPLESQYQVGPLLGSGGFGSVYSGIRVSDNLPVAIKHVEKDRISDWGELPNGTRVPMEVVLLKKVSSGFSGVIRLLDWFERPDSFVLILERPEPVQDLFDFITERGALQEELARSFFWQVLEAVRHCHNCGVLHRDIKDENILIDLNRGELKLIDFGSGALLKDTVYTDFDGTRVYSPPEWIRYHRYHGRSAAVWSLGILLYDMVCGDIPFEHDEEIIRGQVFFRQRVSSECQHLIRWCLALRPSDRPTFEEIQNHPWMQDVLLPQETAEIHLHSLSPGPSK
Description: as §1

[7] = kinase FGFR2 (Part I, plate G8, Domain 1), inhibitor 100 uM
[8] = kinase PIM1 (Part I, plate C2, Domain 1), inhibitor 100 uM
[9] = kinase EPHB1, concentration not given
[10] = kinase FGFR2 (Part II, plate B4, Domain 1), inhibitor 100 uM

Compound | Inhibition Results (Level) (kinases of Table 5 [1]; inhibitor 100 uM) | Inhibition level (kinases of Table 5 [2]; inhibitor 100 uM) | Inhibition level (kinases of Table 5 [3]; inhibitor 100 uM) | Inhibition level (kinases of Table 5 [4]; kinase EPHB1, inhibitor 100 uM) | Inhibition Results (Level) (kinases of Table 5 [5]; [7]) | Inhibition level (kinases of Table 5 [5]; inhibitor 100 uM) | Inhibition Results (Level) (kinases of Table 5 [6]; [8]) | Inhibition Results (Level) (kinases of Table 5 [2]; inhibitor 100 uM) | Inhibition Results (Level) (kinases of Table 5 [4]; inhibitor 100 uM) | Inhibition Results (Level) (kinases of Table 5 [5]; [10]) | other results
N#C/C(=C/c1ccc(O)c(O)c1)C(=O)NCc1ccccc1 [AG 490] | 2 | 2 | 2 | 0 | 2 | 2 | 2 | – | – | – | –
COc1cc2ncnc(Nc3cccc(Cl)c3)c2cc1OC [AG 1478] | 0 | 0 | 2 | 2 | 2 | 2 | 1 | – | – | – | –
O=c1c(-c2ccc(O)cc2)coc2cc(O)cc(O)c12 [Genistein] | 2 | 2 | 2 | 1 | 2 | 2 | 2 | – | – | – | Inhibition Results (Level) (kinases of Table 5 [1]; inhibitor <3.7 mM): 0; Inhibition level (kinases of Table 5 [2]; concentration not given): 0; Inhibition level (kinases of Table 5 [3]; concentration not given): 0; Inhibition level (kinases of Table 5 [4]; [9]): 0; Inhibition Results (Level) (kinases of Table 5 [5]; kinase FGFR2 (Part I, plate G8, Domain 1), inhibitor <3.7 mM): 0; Inhibition level (kinases of Table 5 [5]; concentration not given): 1; Inhibition Results (Level) (kinases of Table 5 [6]; kinase PIM1 (Part I, plate C2, Domain 1), inhibitor <3.7 mM): 0
O=S(=O)(NCCNC/C=C/c1ccc(Br)cc1)c1cccc2cnccc12 [H-89] | 2 | – | – | – | 2 | – | 2 | 2 | 1 | 2 | Inhibition Results (Level) (kinases of Table 5 [3]; inhibitor 100 uM): 0
CC(C)(C)n1nc(-c2ccc(Cl)cc2)c2c(N)ncnc21 [PP2] | 1 | 2 | 2 | 2 | 2 | 2 | 2 | – | – | – | –
O=c1c(O)c(-c2ccc(O)c(O)c2)oc2cc(O)cc(O)c12 [Quercetin] | 0 | – | – | – | 0 | – | – | 0 | 0 | 0 | –
Cn1cc(C2=C(c3cn(CCCSC(=N)N)c4ccccc34)C(=O)NC2=O)c2ccccc21 [Ro-31-8220] | 0 | 2 | 0 | 0 | 2 | 2 | 0 | – | – | – | Inhibition Results (Level) (kinases of Table 5 [1]; inhibitor 90 uM): 2; Inhibition level (kinases of Table 5 [2]; concentration not given): 2; Inhibition level (kinases of Table 5 [3]; concentration not given): 2; Inhibition level (kinases of Table 5 [4]; [9]): 2; Inhibition Results (Level) (kinases of Table 5 [5]; kinase FGFR2 (Part I, plate G8, Domain 1), inhibitor 90 uM): 2; Inhibition level (kinases of Table 5 [5]; concentration not given): 0; Inhibition Results (Level) (kinases of Table 5 [6]; kinase PIM1 (Part I, plate C2, Domain 1), inhibitor 90 uM): 2
CC(=O)c1c(O)c(C)c(O)c(Cc2c(O)c3c(c(C(=O)/C=C/c4ccccc4)c2O)OC(C)(C)C=C3)c1O [Rottlerin (Mallotoxin)] | 2 | – | – | – | 2 | – | 2 | 2 | 1 | 0 | Inhibition Results (Level) (kinases of Table 5 [3]; inhibitor 100 uM): 0
CN[C@@H]1C[C@H]2O[C@@](C)([C@@H]1OC)n1c3ccccc3c3c4c(c5c6ccccc6n2c5c31)C(=O)NC4 [Staurosporine] | – | – | – | – | – | – | – | – | – | – | Inhibition level (kinases of Table 5 [4]): 2; Inhibition Results (Level) (kinases of Table 5 [6]): 2
